Reference: patent US9309250B2, “Substituted pyrrolo[2,3-b]pyrazines as ATR kinase inhibitors” (Vertex Pharmaceuticals Incorporated, priority 2011, dated 2016)

molecular target: T1, full-length ATR (Homo sapiens, UniProt Q13535); experiment: ATR Inhibition Assay (radioactive-phosphate incorporation); format: biochemical; conditions: Ki(app); 5 nM full-length ATR, 10 μM ATP, 800 μM target peptide, 25° C.
T1 construct: Assays were carried out at 25° C. in the presence of 5 nM full-length ATR
Protocol: Compounds were screened for their ability to inhibit ATR kinase using a radioactive-phosphate incorporation assay. Assays were carried out in a mixture of 50 mM Tris/HCl (pH 7.5), 10 mM MgCl2 and 1 mM DTT. Final substrate concentrations were 10 μM [γ-33P]ATP (3mCi 33P ATP/mmol ATP, Perkin Elmer) and 800 μM target peptide (ASELPASQPQPFSAKKK) (SEQ. ID. NO: 1).
Assays were carried out at 25° C. in the presence of 5 nM full-length ATR. An assay stock buffer solution was prepared containing all of the reagents listed above, with the exception of ATP and the test compound of interest. 13.5 μL of the stock solution was placed in a 96 well plate followed by addition of 2 μL of DMSO stock containing serial dilutions of the test compound (typically starting from a final concentration of 15 μM with 3-fold serial dilutions) in duplicate (final DMSO concentration 7%). The plate was pre-incubated for 10 minutes at 25° C. and the reaction initiated by addition of 15 μL [γ-33P]ATP (final concentration 10 μM).
The reaction was stopped after […] by the addition of 30 μL 0.1M phosphoric acid containing 2 mM ATP. A multiscreen phosphocellulose filter 96-well plate (Millipore, Cat no. MAPHN0B50) was pretreated with 100 μL 0.2M phosphoric acid prior to the addition of 45 μL of the stopped assay mixture. The plate was washed with 5×200 μL 0.2M phosphoric acid. After drying, 100 μL Optiphase ‘SuperMix’ liquid scintillation cocktail (Perkin Elmer) was added to the well prior to scintillation counting (1450 Microbeta Liquid Scintillation Counter, Wallac).
After removing mean background values for all of the data points, Ki(app) data were calculated from non-linear regression analysis of the initial rate data using the Prism software package (GraphPad Prism version 3.0cx for Macintosh, GraphPad Software, San Diego Calif., USA).
Below is a chart showing the ATR Inhibition Ki values of compounds of the disclosure.

T1 sequence (Q13535 whole entry): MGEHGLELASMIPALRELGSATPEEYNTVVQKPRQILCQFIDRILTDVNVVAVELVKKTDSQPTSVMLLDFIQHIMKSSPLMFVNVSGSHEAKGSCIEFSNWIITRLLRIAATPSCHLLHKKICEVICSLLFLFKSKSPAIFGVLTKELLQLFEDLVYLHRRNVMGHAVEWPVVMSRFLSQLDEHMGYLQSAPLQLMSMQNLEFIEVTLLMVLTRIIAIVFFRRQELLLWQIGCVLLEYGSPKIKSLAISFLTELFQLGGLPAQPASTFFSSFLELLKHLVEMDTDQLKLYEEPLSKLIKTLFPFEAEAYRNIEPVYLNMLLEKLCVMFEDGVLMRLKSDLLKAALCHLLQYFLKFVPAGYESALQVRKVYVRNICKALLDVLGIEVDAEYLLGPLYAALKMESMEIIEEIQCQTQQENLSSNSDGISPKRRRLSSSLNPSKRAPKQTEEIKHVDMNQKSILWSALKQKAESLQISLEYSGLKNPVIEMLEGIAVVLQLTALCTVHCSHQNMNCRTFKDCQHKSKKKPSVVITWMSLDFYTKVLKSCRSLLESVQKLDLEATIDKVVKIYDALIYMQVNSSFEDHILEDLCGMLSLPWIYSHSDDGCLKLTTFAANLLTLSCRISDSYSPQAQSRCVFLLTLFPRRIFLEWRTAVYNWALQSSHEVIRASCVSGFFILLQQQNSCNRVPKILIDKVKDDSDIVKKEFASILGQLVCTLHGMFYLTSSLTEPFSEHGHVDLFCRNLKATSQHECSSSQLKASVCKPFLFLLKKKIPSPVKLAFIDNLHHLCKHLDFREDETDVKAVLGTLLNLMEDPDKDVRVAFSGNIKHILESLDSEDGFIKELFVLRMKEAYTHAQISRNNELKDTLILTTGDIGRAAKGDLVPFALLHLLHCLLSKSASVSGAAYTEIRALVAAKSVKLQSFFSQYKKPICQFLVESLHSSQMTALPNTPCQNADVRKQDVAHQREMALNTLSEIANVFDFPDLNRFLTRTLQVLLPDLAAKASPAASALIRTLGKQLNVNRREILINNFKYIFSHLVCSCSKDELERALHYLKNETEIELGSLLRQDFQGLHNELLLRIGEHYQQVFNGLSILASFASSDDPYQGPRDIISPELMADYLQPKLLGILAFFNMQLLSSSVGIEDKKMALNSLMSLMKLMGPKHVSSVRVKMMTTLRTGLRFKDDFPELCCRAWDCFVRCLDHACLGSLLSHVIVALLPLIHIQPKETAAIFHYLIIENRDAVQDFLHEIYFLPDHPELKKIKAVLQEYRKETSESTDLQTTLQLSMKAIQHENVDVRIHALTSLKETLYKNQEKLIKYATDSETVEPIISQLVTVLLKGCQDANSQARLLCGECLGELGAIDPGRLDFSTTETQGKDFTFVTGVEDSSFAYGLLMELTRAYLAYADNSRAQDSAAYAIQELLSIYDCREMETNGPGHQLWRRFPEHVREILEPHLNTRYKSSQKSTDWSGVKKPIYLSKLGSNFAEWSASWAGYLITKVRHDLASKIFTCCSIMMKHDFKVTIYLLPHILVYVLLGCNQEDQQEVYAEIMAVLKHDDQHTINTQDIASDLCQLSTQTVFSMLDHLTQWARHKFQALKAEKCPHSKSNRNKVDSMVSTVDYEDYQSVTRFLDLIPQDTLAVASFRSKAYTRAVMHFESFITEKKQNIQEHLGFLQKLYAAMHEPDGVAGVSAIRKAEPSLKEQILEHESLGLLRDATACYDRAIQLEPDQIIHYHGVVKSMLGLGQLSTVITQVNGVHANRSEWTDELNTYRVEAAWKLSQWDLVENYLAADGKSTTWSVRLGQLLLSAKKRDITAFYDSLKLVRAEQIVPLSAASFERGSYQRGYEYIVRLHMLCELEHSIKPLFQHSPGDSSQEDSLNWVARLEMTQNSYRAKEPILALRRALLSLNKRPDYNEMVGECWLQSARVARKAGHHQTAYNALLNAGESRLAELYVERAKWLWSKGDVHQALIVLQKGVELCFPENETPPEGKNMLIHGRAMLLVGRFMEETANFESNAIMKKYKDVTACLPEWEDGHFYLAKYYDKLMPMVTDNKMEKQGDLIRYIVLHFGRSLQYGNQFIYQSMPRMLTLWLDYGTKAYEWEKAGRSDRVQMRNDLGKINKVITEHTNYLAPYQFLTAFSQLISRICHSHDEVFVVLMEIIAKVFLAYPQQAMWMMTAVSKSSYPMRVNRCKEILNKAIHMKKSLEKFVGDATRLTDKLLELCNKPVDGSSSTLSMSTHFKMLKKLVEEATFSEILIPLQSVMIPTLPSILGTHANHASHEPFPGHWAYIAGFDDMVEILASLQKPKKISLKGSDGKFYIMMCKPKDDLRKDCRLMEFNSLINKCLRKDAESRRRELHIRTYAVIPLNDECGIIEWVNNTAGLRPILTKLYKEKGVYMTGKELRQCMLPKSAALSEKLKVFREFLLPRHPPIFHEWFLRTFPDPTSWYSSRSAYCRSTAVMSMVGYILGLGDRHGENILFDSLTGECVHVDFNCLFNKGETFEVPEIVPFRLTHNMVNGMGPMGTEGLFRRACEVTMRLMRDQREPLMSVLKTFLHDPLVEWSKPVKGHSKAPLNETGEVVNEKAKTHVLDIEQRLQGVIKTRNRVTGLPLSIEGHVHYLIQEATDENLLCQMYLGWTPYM

Which Ki does the source give for `CC(C)S(=O)(=O)c1ccc(-c2cnc3[nH]cc(N4Cc5cc(N6CCC(CN)CC6)ccc5C4=O)c3n2)cc1` [Compound I-33, 5-(4-(aminomethyl)piperidin-1-yl)-2-(2-(4-(isopropylsulfonyl)phenyl)-5H-pyrrolo[2,3-b]pyrazin-7-yl)isoindolin-1-one] here?
The Ki was 50 to 100 nM.

For `CC(C)S(=O)(=O)c1ccc(-c2cnc3[nH]cc(N4Cc5cc(NCCN)ccc5C4=O)c3n2)cc1` [Compound I-34, 5-((2-aminoethyl)amino)-2-(2-(4-(isopropylsulfonyl)phenyl)-5H-pyrrolo[2,3-b]pyrazin-7-yl)isoindolin-1-one], which Ki is on record?
The Ki was no more than 50 nM.

With `CC(C)S(=O)(=O)c1ccc(-c2cnc3[nH]cc(N4Cc5cc(N6CC[C@@H](CN)C6)ccc5C4=O)c3n2)cc1` [Compound I-35, (S)-5-(3-(aminomethyl)pyrrolidin-1-yl)-2-(2-(4-(isopropylsulfonyl)phenyl)-5H-pyrrolo[2,3-b]pyrazin-7-yl)isoindolin-1-one] as the compound, how does the Ki read?
Its Ki is no more than 50 nM.

`CC(C)S(=O)(=O)c1ccc(-c2cnc3[nH]cc(N4Cc5cc(N(C)CCCN(C)C)ccc5C4=O)c3n2)cc1` [Compound I-36, 5-((3-(dimethylamino)propyl)(methyl)amino)-2-(2-(4-(isopropylsulfonyl)phenyl)-5H-pyrrolo[2,3-b]pyrazin-7-yl)isoindolin-1-one] was tested. Which Ki did it give?
Its Ki is no more than 50 nM.

For `CC(C)S(=O)(=O)c1ccc(-c2cnc3[nH]cc(N4Cc5cc(N6CCC(N(C)C)CC6)ccc5C4=O)c3n2)cc1` [Compound I-37, 5-(4-(dimethylamino)piperidin-1-yl)-2-(2-(4-(isopropylsulfonyl)phenyl)-5H-pyrrolo[2,3-b]pyrazin-7-yl)isoindolin-1-one], which Ki is on record?
The Ki was no more than 50 nM.

`CC(C)S(=O)(=O)c1ccc(-c2cnc3[nH]cc(N4Cc5cc(N6CCCNCC6)ccc5C4=O)c3n2)cc1` [Compound I-38, 5-(1,4-diazepan-1-yl)-2-(2-(4-(isopropylsulfonyl)phenyl)-5H-pyrrolo[2,3-b]pyrazin-7-yl)isoindolin-1-one] was tested. Which Ki did it give?
The Ki was no more than 50 nM.

`CC(C)S(=O)(=O)c1ccc(-c2cnc3[nH]cc(N4Cc5cc(NC6CNC6)ccc5C4=O)c3n2)cc1` [Compound I-39, 5-(azetidin-3-ylamino)-2-(2-(4-(isopropylsulfonyl)phenyl)-5H-pyrrolo[2,3-b]pyrazin-7-yl)isoindolin-1-one] was tested. Which Ki did it give?
The Ki was no more than 50 nM.

With `CC(C)S(=O)(=O)c1ccc(-c2cnc3[nH]cc(N4Cc5cc(NCC6CCCNC6)ccc5C4=O)c3n2)cc1` (stereo not shown) [Compound I-40, 2-(2-(4-(isopropylsulfonyl)phenyl)-5H-pyrrolo[2,3-b]pyrazin-7-yl)-5-((piperidin-3-ylmethyl)amino)isoindolin-1-one] as the compound, how does the Ki read?
The Ki was no more than 50 nM.

For `CC(C)S(=O)(=O)c1ccc(-c2cnc3[nH]cc(N4Cc5cc(N6CC[C@H](N)C6)ccc5C4=O)c3n2)cc1` [Compound I-41, (S)-5-(3-aminopyrrolidin-1-yl)-2-(2-(4-(isopropylsulfonyl)phenyl)-5H-pyrrolo[2,3-b]pyrazin-7-yl)isoindolin-1-one], which Ki is on record?
Its Ki is no more than 50 nM.

Which Ki does the source give for `CC(C)S(=O)(=O)c1ccc(-c2cnc3[nH]cc(N4Cc5cc(N6CC[C@@H](N)C6)ccc5C4=O)c3n2)cc1` [Compound I-42, (R)-5-(3-aminopyrrolidin-1-yl)-2-(2-(4-(isopropylsulfonyl)phenyl)-5H-pyrrolo[2,3-b]pyrazin-7-yl)isoindolin-1-one] here?
Its Ki is no more than 50 nM.

For `CC(C)S(=O)(=O)c1ccc(-c2cnc3[nH]cc(N4Cc5cc(-c6ccn[nH]6)ccc5C4=O)c3n2)cc1` [Compound I-43, 2-(2-(4-(isopropylsulfonyl)phenyl)-5H-pyrrolo[2,3-b]pyrazin-7-yl)-5-(1H-pyrazol-5-yl)isoindolin-1-one], which Ki is on record?
The Ki was no more than 50 nM.

Which Ki does the source give for `CNc1cccc2c1C(=O)N(c1c[nH]c3ncc(-c4ccc(S(=O)(=O)C(C)C)cc4)nc13)C2` [Compound I-44, 2-(2-(4-(isopropylsulfonyl)phenyl)-5H-pyrrolo[2,3-b]pyrazin-7-yl)-7-(methylamino)isoindolin-1-one] here?
Its Ki is 50 to 100 nM.

How did the Ki turn out when `CC(C)S(=O)(=O)c1ccc(-c2cnc3[nH]cc(N4Cc5cccc(N(C)C)c5C4=O)c3n2)cc1` [Compound I-45, 7-(dimethylamino)-2-(2-(4-(isopropylsulfonyl)phenyl)-5H-pyrrolo[2,3-b]pyrazin-7-yl)isoindolin-1-one] was run?
The Ki was no more than 50 nM.

With `CC(C)S(=O)(=O)c1ccc(-c2cnc3[nH]cc(N4Cc5ccc(OCCN(C)C)cc5C4=O)c3n2)cc1` [Compound I-46, 6-(2-(dimethylamino)ethoxy)-2-(2-(4-(isopropylsulfonyl)phenyl)-5H-pyrrolo[2,3-b]pyrazin-7-yl)isoindolin-1-one] as the compound, how does the Ki read?
Its Ki is no more than 50 nM.

Which Ki does the source give for `CC(C)S(=O)(=O)c1ccc(-c2cnc3[nH]cc(N4Cc5cc(OCCN(C)C)ccc5C4=O)c3n2)cc1` [Compound I-47, 5-(2-(dimethylamino)ethoxy)-2-(2-(4-(isopropylsulfonyl)phenyl)-5H-pyrrolo[2,3-b]pyrazin-7-yl)isoindolin-1-one] here?
The Ki was no more than 50 nM.

`CC(C)S(=O)(=O)c1ccc(-c2cnc3[nH]cc(N4C(=O)c5ccccc5C4CCO)c3n2)cc1` (stereo not shown) [Compound I-48, 3-(2-hydroxyethyl)-2-(2-(4-(isopropylsulfonyl)phenyl)-5H-pyrrolo[2,3-b]pyrazin-7-yl)isoindolin-1-one] was tested. Which Ki did it give?
Its Ki is no more than 50 nM.
